Values belong to the compound of their own block, whether it stands above or below them. Active and inactive are the calls of the source.
What was measured:
[1] = target: T1, Sentrin-specific protease 8 (Homo sapiens, UniProt Q96LD8); format: functional
T1 sequence (Q96LD8 whole entry): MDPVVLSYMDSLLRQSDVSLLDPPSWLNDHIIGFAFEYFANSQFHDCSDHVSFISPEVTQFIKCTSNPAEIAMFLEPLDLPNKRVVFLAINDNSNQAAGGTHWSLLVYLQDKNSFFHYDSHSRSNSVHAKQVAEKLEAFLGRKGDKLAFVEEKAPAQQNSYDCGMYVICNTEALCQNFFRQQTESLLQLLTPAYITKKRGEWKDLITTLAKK

[2] = target: T1, Sentrin-specific protease 8; format: functional; remark: listed apart in the source
Caspase-3 = target: T2, Caspase-3 (Homo sapiens, UniProt P42574); assay: Dose-response confirmation of uHTS inhibitor hits of Sentrin-Specific Protease 8 in a Caspase-3 Fluorescence assay.; format: functional
T2 sequence (P42574 whole entry): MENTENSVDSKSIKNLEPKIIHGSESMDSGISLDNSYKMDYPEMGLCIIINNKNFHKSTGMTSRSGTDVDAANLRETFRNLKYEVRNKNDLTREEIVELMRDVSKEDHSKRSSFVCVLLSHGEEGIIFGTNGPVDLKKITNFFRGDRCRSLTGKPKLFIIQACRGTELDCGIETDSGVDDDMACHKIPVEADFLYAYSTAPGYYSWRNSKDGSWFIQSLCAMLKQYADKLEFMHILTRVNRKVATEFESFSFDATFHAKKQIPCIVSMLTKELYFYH

[3] = target: T3, Histone-lysine N-methyltransferase NSD2 (Homo sapiens, UniProt O96028); format: biochemical
T3 sequence (O96028 whole entry): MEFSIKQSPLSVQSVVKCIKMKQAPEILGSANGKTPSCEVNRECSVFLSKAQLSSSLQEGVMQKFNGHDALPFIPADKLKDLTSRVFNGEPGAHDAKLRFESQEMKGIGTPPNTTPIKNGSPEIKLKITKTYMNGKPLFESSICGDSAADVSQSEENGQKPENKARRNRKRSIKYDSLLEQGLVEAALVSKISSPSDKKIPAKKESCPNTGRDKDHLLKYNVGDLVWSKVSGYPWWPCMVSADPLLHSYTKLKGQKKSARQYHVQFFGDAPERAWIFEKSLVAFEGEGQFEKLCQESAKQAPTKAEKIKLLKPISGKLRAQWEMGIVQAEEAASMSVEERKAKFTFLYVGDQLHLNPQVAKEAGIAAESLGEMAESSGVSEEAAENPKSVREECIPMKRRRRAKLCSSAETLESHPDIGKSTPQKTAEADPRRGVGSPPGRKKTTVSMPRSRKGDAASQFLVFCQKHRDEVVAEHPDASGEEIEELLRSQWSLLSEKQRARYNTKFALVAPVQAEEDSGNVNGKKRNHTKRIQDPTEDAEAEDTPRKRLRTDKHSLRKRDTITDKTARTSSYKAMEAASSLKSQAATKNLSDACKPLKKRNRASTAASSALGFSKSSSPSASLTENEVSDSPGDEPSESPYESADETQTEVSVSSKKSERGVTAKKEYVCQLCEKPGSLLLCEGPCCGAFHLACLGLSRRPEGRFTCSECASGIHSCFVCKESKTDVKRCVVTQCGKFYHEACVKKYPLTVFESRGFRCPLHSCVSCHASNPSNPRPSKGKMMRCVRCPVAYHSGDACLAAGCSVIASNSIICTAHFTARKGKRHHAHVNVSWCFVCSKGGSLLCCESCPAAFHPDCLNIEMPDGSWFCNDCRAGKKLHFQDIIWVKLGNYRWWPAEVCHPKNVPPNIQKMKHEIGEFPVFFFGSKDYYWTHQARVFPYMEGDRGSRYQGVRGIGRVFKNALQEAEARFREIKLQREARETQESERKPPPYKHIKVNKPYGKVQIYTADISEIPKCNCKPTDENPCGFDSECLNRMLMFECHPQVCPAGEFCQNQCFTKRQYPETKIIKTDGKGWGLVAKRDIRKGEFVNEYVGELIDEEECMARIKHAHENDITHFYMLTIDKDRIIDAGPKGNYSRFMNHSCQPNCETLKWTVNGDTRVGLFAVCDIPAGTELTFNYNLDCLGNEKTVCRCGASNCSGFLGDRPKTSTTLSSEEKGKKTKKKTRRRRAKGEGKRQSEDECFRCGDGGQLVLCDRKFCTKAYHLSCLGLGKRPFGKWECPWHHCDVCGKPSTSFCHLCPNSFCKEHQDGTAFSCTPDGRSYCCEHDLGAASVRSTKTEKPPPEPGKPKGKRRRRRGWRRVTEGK

[4] = THP-1 cell cytotoxicity, dose response, cytotoxicity control for Vif-APOBEC3G degradation inhibitor project, THP-1 cells (AID 1117359); format: functional; conditions: Human immunodeficiency virus 1, THP-1
[5] = target: Mothers against decapentaplegic homolog 3 (Homo sapiens, UniProt P84022); assay: SMAD3 transcription factor inhibitors, dose response (AID 715); format: functional
[6] = target: Intestinal-type alkaline phosphatase (Homo sapiens, UniProt P09923); assay: Dose Response confirmation of uHTS hits from a small molecule inhibitors of human intestinal alkaline phosphatase via a luminescent assay. [Related pubchem assays (depositor defined):AID2544, AID2574]; format: functional
Sequence of Intestinal-type alkaline phosphatase (P09923 whole entry): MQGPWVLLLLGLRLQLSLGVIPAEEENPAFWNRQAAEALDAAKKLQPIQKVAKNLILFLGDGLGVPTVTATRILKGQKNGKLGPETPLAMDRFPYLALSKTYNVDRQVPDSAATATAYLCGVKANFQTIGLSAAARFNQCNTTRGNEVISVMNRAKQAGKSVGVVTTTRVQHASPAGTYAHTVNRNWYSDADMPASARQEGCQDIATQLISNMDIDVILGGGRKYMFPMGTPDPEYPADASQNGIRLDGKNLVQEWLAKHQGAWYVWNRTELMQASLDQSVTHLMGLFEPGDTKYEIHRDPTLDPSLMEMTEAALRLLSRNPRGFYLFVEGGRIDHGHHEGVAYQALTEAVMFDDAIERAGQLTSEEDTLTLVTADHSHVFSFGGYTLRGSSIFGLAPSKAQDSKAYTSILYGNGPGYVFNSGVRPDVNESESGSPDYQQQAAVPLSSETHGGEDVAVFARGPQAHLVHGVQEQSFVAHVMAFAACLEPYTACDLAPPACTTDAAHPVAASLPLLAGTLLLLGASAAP

Sequence of Mothers against decapentaplegic homolog 3 (P84022 whole entry): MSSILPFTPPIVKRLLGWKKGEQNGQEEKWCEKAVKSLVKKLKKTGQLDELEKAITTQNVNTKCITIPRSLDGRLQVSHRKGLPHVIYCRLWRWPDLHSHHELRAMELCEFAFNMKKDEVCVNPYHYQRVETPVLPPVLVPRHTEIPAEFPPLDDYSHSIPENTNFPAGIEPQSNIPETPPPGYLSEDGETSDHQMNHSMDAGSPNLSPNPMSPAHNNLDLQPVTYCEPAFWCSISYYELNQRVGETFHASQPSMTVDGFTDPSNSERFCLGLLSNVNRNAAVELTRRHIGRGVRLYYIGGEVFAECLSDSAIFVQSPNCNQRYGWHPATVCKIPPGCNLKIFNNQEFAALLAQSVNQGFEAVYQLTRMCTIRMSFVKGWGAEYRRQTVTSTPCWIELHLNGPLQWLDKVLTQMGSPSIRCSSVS

- IC50 (Caspase-3): 20.9 µM (active)
- AC50 [3]: 2.56 µM (active)
SMILES: O=C(NNc1cc(N2CCOCC2)nc(N2CCOCC2)n1)c1ccc([N+](=O)[O-])cc1
- IC50 [1]: 2.86 µM (active)
- IC50 [2]: 3.2 µM (active)

SMILES: Oc1ccc(/N=C/c2ccc(OCc3ccccc3)cc2)cc1
- CC50 [4]: > 40 µM (active)

SMILES: Nc1c(N2CCCC2)cc(Cl)c2nonc12
- IC50 [5]: 18.3 µM (active)
- IC50 [6]: > 100 µM (inactive)

From ChEMBL document CHEMBL1201862, “PubChem BioAssay data set” (2004)
